Several values for one entry are separate records, joined by “and”; a condition that tells them apart may be missing. Equal entries are not always repeated. Where two headings read alike, the source gives them in different places. Values belong to the molecule of their own block, whether it stands above or below them.
Columns and labels:
[1] = system: rats; assay: Paw pressure test, rat
Procedure: The behavioural tests were performed in a quiet room and evaluated by a single investigator in a blinded manner. Treatments and/or genotypes were randomized in blocks and the number of animals in each block corresponded to the number of treatments and/or genotypes compared. […] Each animal was exposed to only one treatment.
The rats were submitted to the paw pressure test, using an Ugo Basile analgesy meter with a probe tip diameter of 1 mm (Bioseb, France). Nociceptive thresholds, expressed in grams (g), were measured by applying an increasing pressure to the right hind paw until a squeak (vocalization thresholds) was obtained (cut-off 750 g). Two consecutive stable vocalisation threshold values were first obtained (baseline).
Intrathecal injections were performed on anaesthetised rats held in one hand by the pelvic girdle. A 25 gauge 1 inch needle connected to a 25 µl Hamilton syringe was then inserted into the subarachnoidal space between lumbar vertebrae L5 and L6 until a tail flick was elicited. The syringe was held in position for few seconds after the injection of a volume of 10 µl [49]. All injections were performed under isoflurane anaesthesia (4% induction, 2% maintenance).

[2] = system: spinal serotonergic pathways; assay: Spinal serotonin content after lesion of descending serotonergic pathways; type: in vivo; conditions: 5,7-DHT 100 µg/rat intrathecal, 7 days; control 529±34
[3] = system: rats; assay: Formalin test, rat; type: in vivo
Procedure: (§1) The animals received an intraplantar injection of a 2.5% formalin solution (50 µl rat, 25 µl mouse) into a hind paw. The time spent biting and licking of the injected paw was monitored during the two typical phases of the nociceptive response (phase I: 0–5 min; phase II: 20–40 min in rats or 15–40 min in mice).

[4] = type: in vivo, rat
Procedure: […] The brain was removed from the skull and blood was collected in test tubes, containing 60 µl buffered citrate, and the tissues snap frozen in liquid nitrogen before storage at −70°C.
(§2) The whole brain was homogenized in ice-cold 10 mM Tris buffer (ml/g tissue) at pH 7.6. The buffer solution contained 1 mM EDTA, 0.3 mM ascorbic acid and 10 µM methylarachidonylfluorophosphonate (MAFP) to prevent degradation of AM404, arvanil, olvanil, anandamide and 2-arachidonoylglycerol. Aliquots (200 µl) of blood and homogenates were precipitated with 1 ml ice-cold acetone, containing AM404-D4 (5 nM) or anandamide-D8 (100 nM) as internal standard. After centrifugation at 25,200 g for 30 min at 4°C, the supernatants were collected in polypropylene tubes and vacuum evaporated. The protein content of the pellet was determined with Coomassie protein assay (Pierce; Illinois, USA), using bovine serum albumin as standard. […] Samples were analyzed on a Waters Aquity UPLC system coupled to a Sciex 5500 tandem mass spectrometer (LC-MS/MS; AB Sciex; Massachusetts, USA) or a Perkin Elmer 200 HPLC system coupled to an API 3000 tandem mass spectrometer (LC-MS-MS; Applied Biosystems/MDS-SCIEX).
Quantification of AM404, HPODA, arvanil and olvanil. Samples were analyzed on a Waters Aquity UPLC system coupled to a Sciex 5500 tandem mass spectrometer. […]

[5] = target: T1, TRPV1 (Rattus norvegicus, UniProt O35433); assay: TRPV1 activation assessed as nerve-mediated vasorelaxation in rat isolated mesenteric arteries; type: cell-based; conditions: for times more potent than HPODA as TRPV1 activator / times more potent than AM404 as TRPV1 activator: vasorelaxation readout
T1 construct: rat mesenteric arterial segments precontracted with phenylephrine; from tissue; host or cells: rat isolated mesenteric arterial segments (Sprague-Dawley rats)
Procedure: TRPV1 activation was assessed indirectly on rat isolated mesenteric arteries, using nerve-mediated vasorelaxation as readout. Briefly, arterial segments (2 mm long) were suspended between two stainless steel wires in temperature-controlled tissue baths (37°C), containing aerated (95% O2 and 5% CO2) physiological salt solution (composition in mM: NaCl 119, KCl 4.6, CaCl2 1.5, MgCl2 1.2, NaHCO3 15, NaH2PO4 1.2 and D-glucose 6; pH 7.4), under a passive load of 2 mN. One of the wires was connected to a force-displacement transducer model FT03 C (Grass Instruments; Rhode Island, USA) for isometric tension recording. Vasorelaxation was studied in arterial segments submaximally contracted with phenylephrine. Increasing concentrations of AM404, arvanil, olvanil and HPODA in the absence and presence of capsazepine (3 µM) were then added cumulatively to determine concentration-response relationships. All experiments were performed in the presence of indomethacin (10 µM) and N^ω-nitro-L-arginine (300 µM) to reduce cyclooxygenase and nitric oxide synthase activity, respectively.
Data are presented as the mean ± SEM, and n indicates the number of animal tested in each group. pEC50 of the lipid metabolites indicates the negative log concentration that elicited half-maximal vasorelaxation. Mann-Whitney U test or Student’s t-test was used when two groups were compared. When multiple groups were compared, Kruskal-Wallis one-way ANOVA followed by Dunn’s multiple comparisons test was used. Data from the paw pressure test were analyzed by repeated measures two-way ANOVA followed by Sidak’s or Dunnett’s multiple comparisons test. The level of statistical significance was set at p<0.05. GraphPad Prism 6.0 software (California, USA) was used in all calculations and statistical analyses.

[6] = Contents of amines and lipid metabolites in blood and brain after i.p. injection in mice (LC-MS/MS); type: in vivo, mouse
Procedure: Twenty min after drug administration, the animals were anesthetized by CO2 (rats) or isoflurane (mice) inhalation and decapitated. The brain was removed from the skull and blood was collected in test tubes, containing 60 µl buffered citrate, and the tissues snap frozen in liquid nitrogen before storage at −70°C.
as §2
Quantification of AM404, HPODA, arvanil and olvanil. Samples were analyzed on a Waters Aquity UPLC system coupled to a Sciex 5500 tandem mass spectrometer. Sample aliquots of 5 µl were injected into an Acquity UPLC BEH C18 column (100 × 2 mm, 1.7 µm; Waters) held at 50°C. All mobile phases were water-acetonitrile gradients, containing 0.1% formic acid and using a flow rate of 400 µl/min. The acetonitrile content was initially 30%, then increased linearly to 100% over 7 min and kept at this level for 4 min, followed by an equilibration period at 30% for 2 min. The electrospray interface was operating in the positive ion mode at 550°C and the ion spray voltage was set to 5000 volts. The mass transitions (m/z) used were the following: 396.2/110.1 for AM404, 374.2/110.0 for HPODA, 400.2/114.0 for AM404-D4, 440.3/137.1 for arvanil and 418.3/137.1 for olvanil. The declustering potentials were between 96 and 130 volts and the collision energies between 25 and 41 volts.
Quantification of 4-aminophenol and HMBA. Sample aliquots of 5 µl were injected into a Hypercarb column (50 × 2.1 mm; Thermo). All mobile phases were water-acetonitrile gradients, containing 0.1% formic acid. The acetonitrile content was initially 2%, then increased linearly to […] over 5 min and then kept at 100% for 1 min, followed by an equilibration period at 2% for 1.5 min. The electrospray ion source was set at 550°C and used in the positive ion mode with an ion spray voltage of 5000. […] HMBA loses the amino group already in the source of the MS and therefore the mass transition used was 137.0/94.0. The declustering potentials were 100 and 90 volts and the collision energies 21 and 29 volts. No internal standard was used for these analyses.
The contents of the compounds were expressed either in moles or as normalized peak areas (nPA) and related to the protein content in the samples. The nPA was obtained by dividing the peak area of the analyte with the peak area for the internal standard in the same sample. The detection limits were calculated as the concentrations corresponding to three times the standard deviation of the blanks. When levels were below detection limit, numerical values of half the detection limit were used in the calculations.

[7] = system: patients with postoperative pain; parameters: method as in PMID 18843665; conditions: single oral dose of 1000 mg; cited from earlier work
[8] = system: human TRPV1; parameters: method as in PMID 11033355; conditions: HEK293 cells expressing human TRPV1, fluorometric calcium imaging; cited from earlier work
[9] = system: rat orthologue of TRPV1; parameters: method as in PMID 11159715; conditions: 45Ca2+ uptake assay, CHO cells expressing rat TRPV1; cited from earlier work
[10] = system: mice; assay: Formalin test, mouse; type: in vivo; conditions: mice
Procedure: as §1

[11] = AM251 3 mg/kg i.p., 4-aminophenol 100 mg i.p.
[12] = 20 min after i.p. 4-aminophenol (30 and 100 mg/kg) or HMBA (300 mg/kg)
[13] = PMSF 10 mg/kg s.c., 4-aminophenol 100 mg/kg i.p.
[14] = 20 min after HMBA 300 mg/kg i.p., mouse
[15] = capsazepine 10 mg/kg i.p., 4-aminophenol 100 mg/kg

T1 sequence (O35433 whole entry): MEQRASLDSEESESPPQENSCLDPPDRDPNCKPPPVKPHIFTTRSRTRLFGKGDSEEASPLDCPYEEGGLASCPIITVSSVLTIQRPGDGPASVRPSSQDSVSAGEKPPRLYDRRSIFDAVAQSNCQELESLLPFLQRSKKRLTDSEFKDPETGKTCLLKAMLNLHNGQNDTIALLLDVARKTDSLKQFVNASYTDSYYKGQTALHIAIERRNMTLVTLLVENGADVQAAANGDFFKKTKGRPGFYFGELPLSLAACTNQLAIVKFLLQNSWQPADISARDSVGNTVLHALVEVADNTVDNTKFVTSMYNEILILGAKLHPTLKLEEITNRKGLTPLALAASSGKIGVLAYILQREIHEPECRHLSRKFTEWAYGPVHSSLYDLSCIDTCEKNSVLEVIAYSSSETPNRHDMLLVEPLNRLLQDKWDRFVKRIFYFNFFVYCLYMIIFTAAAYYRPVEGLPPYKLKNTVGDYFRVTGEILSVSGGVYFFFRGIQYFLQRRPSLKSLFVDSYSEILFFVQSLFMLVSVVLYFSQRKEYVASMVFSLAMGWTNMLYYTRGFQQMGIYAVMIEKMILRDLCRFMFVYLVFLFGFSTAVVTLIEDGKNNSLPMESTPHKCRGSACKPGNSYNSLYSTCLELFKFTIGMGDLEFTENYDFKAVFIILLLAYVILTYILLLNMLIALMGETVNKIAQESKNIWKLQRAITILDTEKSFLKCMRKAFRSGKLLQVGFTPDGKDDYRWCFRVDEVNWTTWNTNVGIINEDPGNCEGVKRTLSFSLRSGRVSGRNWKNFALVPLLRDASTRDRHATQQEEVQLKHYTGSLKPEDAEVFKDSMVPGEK

Structure (SMILES): NCCc1c[nH]c2c(O)cc(O)cc12 [5,7-DHT, 5,7-dihydroxytryptamine]
- effect on antinociceptive effect of 4-aminophenol, rat paw pressure test ([1]; 5,7-DHT 100 µg/rat intrathecal, 7 days before test, 4-aminophenol 100 mg/kg i.p.): inhibited the antinociceptive effect
- spinal serotonin content [2]: 359±38 ng/g tissue wet weight

Structure (SMILES): Cc1c(C(=O)NN2CCCCC2)nn(-c2ccc(Cl)cc2Cl)c1-c1ccc(I)cc1 [AM251, N-(piperidin-1-yl)-5-(4-iodophenyl)-1-(2,4-dichlorophenyl)-4-methyl-1H-pyrazole-3-carboxamide]
- effect on antinociceptive effect of 4-aminophenol, rat paw pressure test [1, 11]: prevented the antinociceptive effect
- effect on antinociceptive effect of 4-aminophenol, rat formalin test [3, 11]: prevented the antinociceptive effect

Structure (SMILES): CCCCC/C=C\C/C=C\C/C=C\C/C=C\CCCC(=O)Nc1ccc(O)cc1 [AM404, N-(4-Hydroxyphenyl)-5Z,8Z,11Z,14Z-eicosatetraenamide]
- content of AM404 in rat brain at different time points ([4]; 4-aminophenol 100 mg/kg i.p., 15 min and 30 min): Significant amounts
- EC50 [5]: 31.6 nM
- times more potent than HPODA as TRPV1 activator [5]: 3.3 times
- Brain AM404 ([6]; 20 min after 4-AP 30 mg/kg i.p., mouse): 411 pmol/g and 411 ± 134 pmol/g
- Brain AM404 ([6]; 20 min after 4-AP 100 mg/kg i.p., mouse): 4829 ± 1435 pmol/g
- brain content in FAAH−/− mice compared to FAAH+/+ littermates [6, 12]: substantially reduced
- quotient between the brain contents of lipid metabolite and its parent amine ([6]; mouse, in vivo): 1∶1,500

- EC50 ([5]; capsazepine-sensitive vasorelaxation, rat mesenteric arterial segments precontracted with phenylephrine, read-out: pEC50 (negative log concentration eliciting half-maximal vasorelaxation) (converted)): 100 nM
- brain content in FAAH−/− mice compared to wild-type littermates ([6]; mouse, in vivo): no significant difference
- increase of brain content in FAAH−/− mice compared to wild-type littermates ([6]; mouse, in vivo, 20 min): 3 fold
Structure (SMILES): CCCCCCCC/C=C\CCCCCCCC(=O)Nc1ccc(O)cc1 [HPODA, N-(4-hydroxyphenyl)-9Z-octadecenamide]

Structure (SMILES): O=S(=O)(F)Cc1ccccc1 [PMSF, phenylmethylsulfonyl fluoride]
- effect on antinociceptive effect of 4-aminophenol, rat paw pressure test [1, 13]: inhibited the antinociceptive effect
- effect on formation of AM404 in rat brain ([4]; PMSF 10 mg/kg s.c. pretreatment, 20 min after 4-aminophenol 100 mg/kg i.p.): substantially reduced the formation of AM404
- effect on antinociceptive effect of 4-aminophenol, rat formalin test [3, 13]: inhibited the antinociceptive effect

Structure (SMILES): CC(=O)Nc1ccc(O)cc1 [Paracetamol]
- NNT (numbers needed to treat) for at least 50% pain reduction over 4–6 hours [7]: 3.6

Structure (SMILES): COc1ccccc1N1CCN(CCN(C(=O)C2CCCCC2)c2ccccn2)CC1.O=C(O)/C=C\C(=O)O [WAY-100635, N-[2-[4-(2-methoxyphenyl)-1-piperazinyl]ethyl]-N-2-pyridinylcyclohexane-carboxamide maleate]
- effect on antinociceptive effect of 4-aminophenol, rat formalin test ([3]; WAY-100635 40 µg/rat intrathecal 5 min before 4-aminophenol 100 mg/kg i.p.): prevented

Structure (SMILES): CCCCC/C=C\C/C=C\C/C=C\C/C=C\CCCC(=O)NCc1ccc(O)c(OC)c1 [arvanil, N-(4-hydroxy-3-methoxybenzyl)-5Z,8Z,11Z,14Z-eicosatetraenamide]
- times more potent than AM404 [8]: approximately 50 times
- EC50 [5]: 0.2 nM
- times more potent than AM404 as TRPV1 activator [5]: > 100 times and 172 times
- times more potent than HPODA as TRPV1 activator [5]: > 300 times
- times more potent than AM404 [9]: 933 times
- Brain Arvanil ([6]; 20 min after HMBA 100 mg/kg i.p., mouse): 3.33 pmol/g
- Brain Arvanil ([6]; 20 min after HMBA 100 mg/kg i.p., mouse, listed as Arvanil): 3.33 ± 0.33 pmol/g
- Brain Arvanil [6, 14]: 56 ± 10 pmol/g
- brain content in FAAH−/− mice compared to FAAH+/+ littermates [6, 12]: substantially reduced
- concentration at 20 min ([6]; in vivo, HMBA 100 mg/kg, mouse, read-out: brain content of arvanil): 3.33 pM

Structure (SMILES): Oc1cc2c(cc1O)CN(C(=S)NCCc1ccc(Cl)cc1)CCC2 [capsazepine, N-[2-(4-Chlorophenyl)ethyl]-1,3,4,5-tetrahydro-7,8-dihydroxy-2H-2-benzazepine-2-carbothioamide]
- effect on antinociceptive effect of 4-aminophenol, rat paw pressure test [1, 15]: prevented the antinociceptive effect
- effect on antinociceptive effect of 4-aminophenol in formalin test ([10]; capsazepine 100 nmol into lateral ventricle 5 min prior to 4-aminophenol 30 mg/kg i.p.): eliminated the antinociceptive effects
- effect on antinociceptive effect of HMBA in formalin test ([10]; capsazepine 100 nmol into lateral ventricle 5 min prior to HMBA 100 mg/kg i.p.): eliminated the antinociceptive effects
- effect on vasorelaxation evoked by arvanil, olvanil and HPODA ([5]; capsazepine 3 µM): significantly suppressed the vasorelaxation
- effect on antinociceptive effect of 4-aminophenol, rat formalin test [3, 15]: prevented the antinociceptive effect

Structure (SMILES): Cc1c(N(C)CS(=O)(=O)[O-])c(=O)n(-c2ccccc2)n1C.[Na+] [dipyrone]
- antinociception in formalin test ([10]; dipyrone 50 mg/kg i.p.): effective antinociceptive agent

Structure (SMILES): CCCCCCCC/C=C\CCCCCCCC(=O)NCc1ccc(O)c(OC)c1 [olvanil, N-(4-hydroxy-3-methoxybenyl)-9Z-octadecenamide]
- times more potent than AM404 [8]: approximately 50 times
- EC50 [5]: 0.316 nM
- times more potent than AM404 as TRPV1 activator [5]: > 100 times and 110 times
- times more potent than HPODA as TRPV1 activator [5]: > 300 times
- Brain Olvanil [6, 14]: 45 ± 5.6 pmol/g
- brain content in FAAH−/− mice compared to FAAH+/+ littermates ([6]; mouse, in vivo): substantially reduced

Structure (SMILES): CN1[C@@H]2CC[C@H]1C[C@@H](OC(=O)c1c[nH]c3ccccc13)C2 [tropisetron, Tropisetron]
- effect on antinociceptive effect of 4-aminophenol, rat paw pressure test ([1]; tropisetron 500 ng/rat intrathecal 5 min before 4-aminophenol 100 mg/kg i.p.): prevented

From paper PMC3734263, “Fatty Acid Amide Hydrolase-Dependent Generation of Antinociceptive Drug Metabolites Acting on TRPV1 in the Brain” (PLoS ONE, 2013)
